Test results from paper PMC5097697 (Analytical biochemistry, 2016).

Test system: Sinapis alba myrosinase
Assay: HPLC progress curves
Format: biochemical
Details: pH 7.4, 37 °C; pooled wavelength data (220, 227, 235, 241 nm); myrosinase 8.83 U/ml

Km: 798 ± 71 µM
SMILES: O=S(=O)(O)O/N=C(/CC(c1ccccc1)c1ccccc1)S[C@@H]1O[C@H](CO)[C@@H](O)[C@H](O)[C@H]1O [compound 5, 2,2-Diphenylethyl glucosinolate]
